Data reported in paper PMC7608132 (Acta Pharmacologica Sinica, 2020).
Where two headings read alike, the source gives them in different places. Each block holds one compound with its values, some of them ahead of it.

How the values were obtained:
[1] = rifampin; cited from earlier work
[2] = HLMs, 3 µM alflutinib, selective inhibitor at the concentration of b13

Suppression of the production of AST5902 (CYP enzymes in HLMs; [2]): 45%
SMILES: Nc1ccc(S(=O)(=O)Nc2ccnn2-c2ccccc2)cc1 [Sulfaphenazole, sulfaphenazole]

Effect on the formation of alflutinib metabolites (CYP enzymes in HLMs): no significant effects
SMILES: O=c1cc(-c2ccccc2)oc2c1ccc1ccccc12 [α-Naphthoflavone, α-naphthoflavone]

More lines, now with the values behind:

SMILES: CO[C@H]1/C=C/O[C@@]2(C)Oc3c(C)c(O)c4c(O)c(c(/C=N/N5CCN(C)CC5)c(O)c4c3C2=O)NC(=O)/C(C)=C\C=C\[C@H](C)[C@H](O)[C@@H](C)[C@@H](O)[C@@H](C)[C@H](OC(C)=O)[C@@H]1C [Rifampin]
In vivo concentrations [1]: 10 to 18 µM

SMILES: O=c1c(O)c(-c2ccc(O)c(O)c2)oc2cc(O)cc(O)c12 [Quercetin, quercetin]
Suppression of the production of AST5902 (CYP enzymes in HLMs; [2]): 68%

SMILES: Cc1ncsc1CCCl [chlormethiazole]
Effect on the formation of alflutinib metabolites (CYP enzymes in HLMs; HLMs, α-naphthoflavone 2 µM, chlormethiazole 24 µM): no significant effects

SMILES: Nn1nnc2ccccc21 [ABT, 1-aminobenzotriazole]
Suppression of the production of AST5902 (CYP enzymes in HLMs): 98%
